Results on three molecules are retold here after patent US7285642B2, “Composition and method for modulating dendritic cell-T cell interaction” (Katholieke Universiteit Nijmegen, priority 2000, dated 2007).

Assay [1] concerns the target T1, DC-SIGN (Homo sapiens, UniProt Q9NNX6).
T1 construct: expressed in transfected cells; host or cells: COS7 cells, transient transfection with pRc/CMV-DC-SIGN (DEAE dextran)
T1 sequence (Q9NNX6 1-404): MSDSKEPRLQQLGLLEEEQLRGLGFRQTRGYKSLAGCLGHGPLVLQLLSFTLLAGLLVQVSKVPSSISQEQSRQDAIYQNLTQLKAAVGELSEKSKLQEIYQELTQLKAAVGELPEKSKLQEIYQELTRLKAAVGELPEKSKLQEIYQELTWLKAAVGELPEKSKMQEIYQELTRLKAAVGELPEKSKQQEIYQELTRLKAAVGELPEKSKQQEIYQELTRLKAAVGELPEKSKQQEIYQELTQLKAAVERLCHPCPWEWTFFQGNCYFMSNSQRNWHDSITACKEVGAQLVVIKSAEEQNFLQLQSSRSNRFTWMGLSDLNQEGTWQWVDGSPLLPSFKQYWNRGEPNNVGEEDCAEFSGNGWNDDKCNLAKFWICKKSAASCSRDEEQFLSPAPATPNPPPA
The assay can be described thus: Binding of DC-SIGN to ICAM-2 and ICAM-3 expressing K562 cells (FIG. 8). Type of assay: cell-based.

The next assay concerns adhesion of DC to ICAM-3. The assay can be described thus: Fluorescent beads adhesion assay: adhesion of DC to ICAM-3Fc beads. The conditions noted are these: 5 mM. Format: cell-based, human.
In assay [2] the target is T1, DC-SIGN. Nature of the assay: Adhesion of COS7-DC-SIGN cells to ICAM-3 beads. Format: cell-based. The conditions noted are these: 5 mM. The source says: RT-PCR analysis with primers based on the gp120-binding C-type lectin sequence, on RNA isolated from DC yielded a PCR product of the expected length of 1237 nt. The DC-specific PCR product was cloned and sequencing confirmed 100% identity with the human gp120-binding lectin (FIG. 3B). Flowcytometric analysis of COS7 cells, transfected with the cDNA encoding the placenta gp120-binding C-type lectin, unequivocally proves that the gp120 binding C-type lectin is indeed identical to DC-SIGN (FIG. 4A). […] COS7 cells were transfected and the adhesion was determined as described in FIG. 1A, respectively. Adhesion of COS7-DC-SIGN cells to ICAM-3 was measured in the presence of EGTA (5 mM) and blocking antibodies against DC-SIGN (AZN-D1), ICAM-3 (CBR-IC3/1, CBR-IC3/2) and β2 integrinds (AZN-L19). A representative experiment out of 3 is shown (SD<5%). About 30% of the transfected COS7 cells are stained with anti-DC-SIGN-antibody and therefore express DC-SIGN. […]
Carboxylate-modified TransFluorSpheres (488/645 nm, 1.0 μm; Molecular Probes, Eugene, Oreg.) were coated with ICAM-1 Fc and ICAM-3 Fc as described previously (Geijtenbeek et al., 1999 submitted). […] Adhesion was determined by measuring the percentage of cells, which have bound fluorescent beads, by flowcytometry using the FACScan (Becton and Dickinson & Co., Oxnard, Calif.).

Description for adhesion of DC to ICAM-3: Exploiting a novel flowcytrometric adhesion assay involving ICAM-3-Fc chimera coated fluorescent beads (Geijtenbeek et al.), the capacity of DC, resting peripheral blood lymphocytes (PBL) and monocytes to bind to this integrin ligand was tested. […] Freshly isolated PBL, monocytes and DC were incubated for 30 min. at 37° C. with either ICAM-1Fc or ICAM-3Fc fluorescent beads. After washing, the percentage of cells that bound beads was determined by flowcytometry. • 1B: Adhesion of leukocytes to ICAM-3 after activation of β2-integrins. Binding of fluorescent ICAM-3Fc beads was measured after 30 min. at 37° C. in the presence of either PMA 980 nM) or the activating anti-β2-integrin antibody KIM185 (10 μg/ml). Inhibition of the LFA-1 specific adhesion after PMA activation was determined in the presence of the blocking anti-LFA-1 antibody NKI-L15 (20 μg/ml). • 1C: Adhesion of DC to ICAM-3 in the presence of blocking antibodies (20 μg/ml) against β2-integrins (NKI-L19), β1-integrin (AIIB2), ICAM-3 (CBR-IC3/1, CBR-IC3/2) or in the presence of EDTA (5 mM) or EGTA (5 mM). The adhesion was determined as described in FIG. 1A.
DC were cultured from monocytes in the presence of GM-CSF and IL-4. […] Adhesion was determined as described in FIG. 1A. […]

Turning to mannan, on DC-SIGN [1], the “Inhibition of DC-SIGN binding to K562 cells expressing ICAM-2 or ICAM-3” value is given as “can be inhibited”.
In the case of `O=C(O)CN(CCN(CC(=O)O)CC(=O)O)CC(=O)O` [EDTA], the “Inhibition of adhesion of DC to ICAM-3Fc fluorescent beads” value with adhesion of DC to ICAM-3 is “completely blocked”.
As to `O=C(O)CN(CCOCCOCCN(CC(=O)O)CC(=O)O)CC(=O)O` [EGTA], on DC-SIGN [2], the “Inhibition of adhesion of COS7-DC-SIGN cells to ICAM-3” value is recorded as “blocks adhesion completely”. The “Inhibition of adhesion of DC to ICAM-3Fc fluorescent beads” value with adhesion of DC to ICAM-3 is reported as “completely blocked”.
